Data taken from ChEMBL document CHEMBL1201862, “PubChem BioAssay data set” (2004).
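Following 48 hours of exposure in 96-well plates, responses at five concentrations were used to interpolate endpoints linearly. The concentration for 50% growth inhibition is given as GI50.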 The source made the active and inactive calls. Cut-off read from the data, not from the text of the source: active = GI50 up to about 1.1 µM and inactive = higher.

Experiments:
Experiment in all cases: DTP human tumour cell line panel, 48 h
[1] = test system: DMS-114
[2] = test system: EKVX
[3] = test system: SW-620
[4] = test system: UACC-257
[5] = test system: CCRF-CEM
[6] = test system: ACHN
[7] = test system: U-251
[8] = test system: A498
[9] = test system: OVCAR-4
[10] = test system: LOX IMVI
[11] = test system: SK-MEL-28
[12] = test system: RXF 393
[13] = test system: HCT-15
[14] = test system: 786-0
[15] = test system: NCI/ADR-RES

| Compound | GI50 [1] | GI50 [2] | GI50 [3] | GI50 [4] | GI50 [5] | GI50 [6] | GI50 [7] | GI50 [8] | GI50 [9] | GI50 [10] | GI50 [11] | GI50 [12] | GI50 [13] [µM] | GI50 [14] | GI50 [15] |
| --- | --- | --- | --- | --- | --- | --- | --- | --- | --- | --- | --- | --- | --- | --- | --- |
| COc1nc(N)c(C(=O)CCl)c(=O)n1C | 16.8 µM (inactive) | 15.1 µM (inactive) | 12.4 µM (inactive) | 11.5 µM (inactive) | 15.1 µM (inactive) | 20.6 µM (inactive) | 15.5 µM (inactive) | 15.4 µM (inactive) | 15.4 µM (inactive) | 5.28 µM (inactive) | 12 µM (inactive) | 7.35 µM (inactive) | – | – | – |
| Cc1oc2c(C)c3oc(=O)cc(C)c3cc2c1CN1C(=O)C2OCCOCCOCCOCCOCCO[C@H]2C1=O (stereo partly specified) | > 100 µM (inactive) | > 100 µM (inactive) | > 100 µM (inactive) | > 100 µM (inactive) | > 100 µM (inactive) | > 100 µM (inactive) | > 100 µM (inactive) | > 100 µM (inactive) | > 100 µM (inactive) | > 100 µM (inactive) | – | > 100 µM (inactive) | > 100 | > 100 µM (inactive) | – |
| COc1cc(-c2ccc(/N=N/c3ccc4c(S(=O)(=O)O)cc(S(=O)(=O)O)c(N)c4c3O)c(OC)c2)ccc1/N=N/c1ccc2c(S(=O)(=O)O)cc(S(=O)(=O)O)c(N)c2c1O | > 100 µM (inactive) | > 100 µM (inactive) | > 100 µM (inactive) | > 100 µM (inactive) | > 100 µM (inactive) | – | > 100 µM (inactive) | > 100 µM (inactive) | > 100 µM (inactive) | > 100 µM (inactive) | > 100 µM (inactive) | > 100 µM (inactive) | > 100 | – | > 100 µM (inactive) |
| COc1cc(/C=C(/C#N)C(N)=O)ccc1O | > 100 µM (inactive) | > 100 µM (inactive) | > 100 µM (inactive) | > 100 µM (inactive) | > 100 µM (inactive) | – | > 100 µM (inactive) | > 63.2 µM (inactive) | > 100 µM (inactive) | > 100 µM (inactive) | > 100 µM (inactive) | – | > 100 | – | > 100 µM (inactive) |
| Cc1ccc2nc(/C(=C/c3ccc(/C=C(\NC(=O)c4ccccc4)c4nc5ccc(C)cc5[nH]4)c(C)c3)NC(=O)c3ccccc3)[nH]c2c1 | 7.57 µM (inactive) | 12.5 µM (inactive) | 5.92 µM (inactive) | – | 3.02 µM (inactive) | 8.45 µM (inactive) | 22.7 µM (inactive) | 11.4 µM (inactive) | – | – | 25.2 µM (inactive) | – | 3.13 | 9.02 µM (inactive) | – |
| O=c1cccccc1NCCOCCNc1cccccc1=O | > 100 µM (inactive) | > 100 µM (inactive) | > 100 µM (inactive) | > 100 µM (inactive) | > 100 µM (inactive) | > 100 µM (inactive) | > 100 µM (inactive) | > 100 µM (inactive) | > 100 µM (inactive) | > 100 µM (inactive) | > 100 µM (inactive) | – | > 100 | > 100 µM (inactive) | – |
| CCCCCCCCCCCCCCNCC(OC)OC | 14 µM (inactive) | 18.2 µM (inactive) | 16.1 µM (inactive) | 19.4 µM (inactive) | 9.18 µM (inactive) | 16.2 µM (inactive) | 16.3 µM (inactive) | 19.8 µM (inactive) | 15.1 µM (inactive) | 16.4 µM (inactive) | 16.5 µM (inactive) | 14.7 µM (inactive) | 11.8 | 16 µM (inactive) | – |
| NC(=O)CCC(N=C(N)c1csc(C2OC(CO)C(O)C2O)n1)C(=O)O (stereo unspecified) | > 100 µM (inactive) | > 100 µM (inactive) | > 100 µM (inactive) | > 100 µM (inactive) | > 100 µM (inactive) | > 100 µM (inactive) | > 100 µM (inactive) | > 100 µM (inactive) | > 100 µM (inactive) | > 100 µM (inactive) | > 100 µM (inactive) | > 100 µM (inactive) | > 100 | – | – |
| CN(C)CCC1(C2=CCCC2)CC/C(=C\c2ccc3c(c2)OCO3)C1=O (stereo unspecified) | 14.8 µM (inactive) | 15.8 µM (inactive) | 15.8 µM (inactive) | 15.5 µM (inactive) | 16 µM (inactive) | 16.1 µM (inactive) | 15.6 µM (inactive) | 12.2 µM (inactive) | 13.5 µM (inactive) | – | 14.3 µM (inactive) | 9.14 µM (inactive) | 13.9 | 14 µM (inactive) | – |
| CC#N.O[C@@H]1CCCC[C@H]1O.O[C@@H]1CCCC[C@H]1O.[TeH2] | 44.7 µM (inactive) | – | 16.7 µM (inactive) | > 100 µM (inactive) | 20.2 µM (inactive) | 46.3 µM (inactive) | 13.9 µM (inactive) | > 100 µM (inactive) | 61.8 µM (inactive) | 9.57 µM (inactive) | > 100 µM (inactive) | > 100 µM (inactive) | 18.1 | 48.8 µM (inactive) | – |
